Results reported in patent EP0017970A1, “Novel beta-lactam derivatives and process for production thereof” (SANRAKU-OCEAN CO., LTD., priority 1979, dated 1980).
Converted amounts (≈) assume the structure as drawn. Where a name gives a salt, the structure may show the parent alone.

Columns and labels:
Alcaligenes faecalis A 1 = assay: MIC, agar dilution assay; type: cell-based; details: 35°C for 20 hours; for MIC: Alcaligenes faecalis, A1, 20 h, read-out: Antibiotic Activity minimum inhibitory concentration
Description: (§1) The antibiotic activities shown in Tables 1-1 to 1-9 above were determined in the following manner. The minimum inhibitory concentrations of the compounds of formula (VI-b) in Tables I-1 to 1-8 and the known compounds in Table 1-9 on the various microorganisms shown in the above tables were measured by an agar dilution assay method using a brain heart infusion agar medium "Difco" (a product of Difco Laboratories Inc.). A sample of the test compound was dissolved in sterile distilled water and diluted to prepare a twofold dilution series of the compound solution. In a betri dish of 9 cm in diameter, 1 ml of the compound solution was added to 9 ml of a molten sterile heart infusion agar medium (Difco Laboratories Inc.) at. about 60°C to prepare an agar plate containing the compound. An overnight culture of each test organism indicated in the above table, which was prepared by stationary cultivation in trypto-soy broth (Eiken Chemi. Co., Ltd.) at 35°C for 18 to 20 hours, was diluted with the trypto-soy broth to give approximately 10^8 cells/ml and the diluted inoculum was inoculated in the agar plate. After cultivating the plate at 35°C for 20 hours, the growth of the organism was observed. The minimum concentration of the compound at which no growth of the microorganism was noted was determined, and defined as the minimum inhibitory concentration of the test compound.

[1] = tested on: Bacillus subtilis ATCC 6633; assay: MIC, agar dilution assay; type: cell-based; details: 35°C for 20 hours; for MIC: Bacillus subtilis, ATCC6633, 20 h, read-out: Antibiotic Activity minimum inhibitory concentration
Description: as §1

[2] = tested on: Citrobacter freundii GN 346; assay: MIC, agar dilution assay; type: cell-based; details: GN346, 20 h, 35°C for 20 hours, read-out: Antibiotic Activity minimum inhibitory concentration
Description: as §1

[3] = tested on: Comamonas terrigena B-996; assay: MIC, agar dilution assay; type: cell-based; details: 35°C for 20 hours; for MIC: Comamonas terrigena, B996, 20 h, read-out: Antibiotic Activity minimum inhibitory concentration
Description: as §1

[4] = tested on: Enterobacter aerogenes E19; assay: MIC, agar dilution assay; type: cell-based; details: 35°C for 20 hours; for MIC: Klebsiella aerogenes, E19, 20 h, read-out: Antibiotic Activity minimum inhibitory concentration
Description: as §1

Enterobacter cloacae 45 = assay: MIC, agar dilution assay; type: cell-based; details: Enterobacter cloacae, 45, 20 h, 35°C for 20 hours, read-out: Antibiotic Activity minimum inhibitory concentration
Description: as §1

Enterobacter sp. E8 = assay: MIC, agar dilution assay; type: cell-based; details: 35°C for 20 hours; for MIC: Enterobacter, SP.E8, 20 h, read-out: Antibiotic Activity minimum inhibitory concentration
Description: as §1

Escherichia coli K-12 = assay: MIC, agar dilution assay; type: cell-based; details: 35°C for 20 hours; for MIC: Escherichia coli, K12, 20 h, read-out: Antibiotic Activity minimum inhibitory concentration
Description: as §1

Escherichia coli RGN 823 = assay: MIC, agar dilution assay; type: cell-based; details: RGN823, 20 h, 35°C for 20 hours, read-out: Antibiotic Activity minimum inhibitory concentration
Description: as §1

[5] = tested on: Klebsiella pneumoniae K-13; assay: MIC, agar dilution assay; type: cell-based; details: K13, 35°C for 20 hours, read-out: Antibiotic Activity minimum inhibitory concentration
Description: as §1

Proteus mirabilis P6 = assay: MIC, agar dilution assay; type: cell-based; details: P6, 20 h, 35°C for 20 hours, read-out: Antibiotic Activity minimum inhibitory concentration
Description: as §1

Proteus rettgeri P7 = assay: MIC, agar dilution assay; type: cell-based; details: 35°C for 20 hours; for MIC: Providencia rettgeri, P7, 20 h, read-out: Antibiotic Activity minimum inhibitory concentration
Description: as §1

Proteus sp. P22 = assay: MIC, agar dilution assay; type: cell-based; details: 35°C for 20 hours, read-out: Antibiotic Activity minimum inhibitory concentration
Description: as §1

Proteus vulgaris GN76 = assay: MIC, agar dilution assay; type: cell-based; details: 35°C for 20 hours, read-out: Antibiotic Activity minimum inhibitory concentration
Description: as §1

Providencia sp. P8 = assay: MIC, agar dilution assay; type: cell-based; details: 35°C for 20 hours; for MIC: Providencia, SP.P8, 20 h, read-out: Antibiotic Activity minimum inhibitory concentration
Description: as §1

[6] = tested on: Pseudomonas aeruginosa IFO3445; assay: MIC, agar dilution assay; type: cell-based; details: 35°C for 20 hours, read-out: Antibiotic Activity minimum inhibitory concentration
Description: as §1

[7] = tested on: Pseudomonas aeruginosa NCTC10490; assay: MIC, agar dilution assay; type: cell-based; details: 35°C for 20 hours, read-out: Antibiotic Activity minimum inhibitory concentration
Description: as §1

Sarcina lutea = assay: MIC, agar dilution assay; type: cell-based; details: 35°C for 20 hours; for MIC: Micrococcus luteus, 20 h, read-out: Antibiotic Activity minimum inhibitory concentration
Description: as §1

Serratia marcescens S18 = assay: MIC, agar dilution assay; type: cell-based; details: 35°C for 20 hours; for MIC: Serratia marcescens, S18, 20 h, read-out: Antibiotic Activity minimum inhibitory concentration
Description: as §1

Serratia marcescens T55 = assay: MIC, agar dilution assay; type: cell-based; details: 35°C for 20 hours; for MIC: Serratia marcescens, T55, 20 h, read-out: Antibiotic Activity minimum inhibitory concentration
Description: as §1

[8] = tested on: Staphylococcus aureus FDA 209P; assay: MIC, agar dilution assay; type: cell-based; details: 35°C for 20 hours; for MIC: Staphylococcus aureus, FDA209P, 20 h, read-out: Antibiotic Activity minimum inhibitory concentration
Description: as §1

[9] = tested on: Staphylococcus aureus Russell; assay: MIC, agar dilution assay; type: cell-based; details: 35°C for 20 hours; for MIC: Staphylococcus aureus, 20 h, read-out: Antibiotic Activity minimum inhibitory concentration
Description: as §1

[10] = tested on: Staphylococcus aureus Smith; assay: MIC, agar dilution assay; type: cell-based; details: 35°C for 20 hours; for MIC: Staphylococcus aureus, 20 h, read-out: Antibiotic Activity minimum inhibitory concentration
Description: as §1

[11] = tested on: Staphylococcus epidermidis; assay: MIC, agar dilution assay; type: cell-based; details: 35°C for 20 hours; for MIC: 20 h, read-out: Antibiotic Activity minimum inhibitory concentration
Description: as §1

[12] = Solubility (physical and chemical properties); type: physicochemical
Description: The resulting powder was dissolved in 1 ml of a phosphate buffer (M/100, pH 8.4), and charged onto a column (1.1 x 90 cm) of Sephadex G-10 (a product of Pharmacia Fine Chemicals, Co.), and developed with the same buffer. The active fractions were collected by measuring their ultraviolet absorptions (λ300 nm). These fractions were adsorbed to a column (1.1 x 20 cm) of QAE Sephadex A-25 equilibrated with phosphate buffer (M/100, pH 8.4), and the column was eluted with 200 ml of phosphate buffer (M/100, pH 8.4) having a sodium chloride concentration linearly varying from 0 to O.lM by a concentration gradient method. The ultraviolet absorption (X300 nm) of each of the fractions was measured, and the active fractions were collected. Sodium chloride was added to the active fractions so that the concentration of sodium chloride reached 3% (w/v). The mixture was adsorbed to a column (1.1 x 20 cm) of Diaion HP-20AG (200 - 400 mesh), and eluted with water. The eluates were lyophilized to afford 5 mg of the sodium salt of PS-3 as a white dry powder. The physical and chemical properties of the product were as follows: • 1) Color Colorless • 2) Solubility

[13] = Reaction with hydroxylamine, loss of UV absorbance; type: physicochemical; details: about 20 µg/ml, hydroxylamine 10 mM, pH 7.5, 22°C for 30 minutes
Description: An aqueous solution of hydroxylamine having a pH of 7.5 is added to a solution of the above substance in deionized water so that the concentration of the antibiotic PS-3 to about 20 µg/ml and the concentration of hydroxylamine to 10 mM. When the mixed solution is allowed to stand at 22°C for 30 minutes, about 93% of its absorbance at 300.0 nm disappears.

| Compound | MIC (Alcaligenes faecalis A 1) [µg/mL] | MIC [1] [µg/mL] | MIC [2] [µg/mL] | MIC [3] [µg/mL] | MIC [4] [µg/mL] | MIC (Enterobacter cloacae 45) [µg/mL] | MIC (Enterobacter sp. E8) [µg/mL] | MIC (Escherichia coli K-12) [µg/mL] | MIC (Escherichia coli RGN 823) [µg/mL] | MIC [5] [µg/mL] | MIC (Proteus mirabilis P6) [µg/mL] | MIC (Proteus rettgeri P7) [µg/mL] | MIC (Proteus sp. P22) [µg/mL] | MIC (Proteus vulgaris GN76) [µg/mL] | MIC (Providencia sp. P8) [µg/mL] | MIC [6] [µg/mL] | MIC [7] [µg/mL] | MIC (Sarcina lutea) [µg/mL] | MIC (Serratia marcescens S18) [µg/mL] | MIC (Serratia marcescens T55) [µg/mL] | also measured |
| --- | --- | --- | --- | --- | --- | --- | --- | --- | --- | --- | --- | --- | --- | --- | --- | --- | --- | --- | --- | --- | --- |
| CC(C)C1C(=O)N2C(C(=O)O)=C(Sc3ccncc3)CC12 (stereo not shown) [Table I-1 R1=-CH3] | 0.013 (≈ 0.0427 µM) | 0.013 (≈ 0.0427 µM) | 50 (≈ 164 µM) | 0.007 (≈ 0.023 µM) | 12.5 (≈ 41.1 µM) | 50 (≈ 164 µM) | 1.56 (≈ 5.13 µM) | 3.13 (≈ 10.3 µM) | 12.5 (≈ 41.1 µM) | 25 (≈ 82.1 µM) | 3.13 (≈ 10.3 µM) | 1.56 (≈ 5.13 µM) | 50 (≈ 164 µM) | 50 (≈ 164 µM) | 3.13 (≈ 10.3 µM) | 1.56 (≈ 5.13 µM) | 1.56 (≈ 5.13 µM) | 0.013 (≈ 0.0427 µM) | 50 (≈ 164 µM) | 100 (≈ 329 µM) | MIC [8]: 0.007 µg/mL (≈ 0.023 µM); MIC [9]: 0.013 µg/mL (≈ 0.0427 µM); MIC [10]: 0.013 µg/mL (≈ 0.0427 µM); MIC [11]: 0.013 µg/mL (≈ 0.0427 µM) |
| CC(=O)NCCSC1=C(C(=O)O)N2C(=O)C(C(C)O)C2C1 (stereo not shown) [PS-3 sodium salt, 3-(2-acetamidoethylthio)-6-(1-hydroxyethyl)-7-oxo-1-azabicyclo[3.2.0]hept-2-ene-2-carboxylic acid] | – | – | – | – | – | – | – | – | – | – | – | – | – | – | – | – | – | – | – | – | Solubility ([12]; in acetone): substantially insoluble; Solubility ([12]; in water): Readily soluble; absorbance at 300.0 nm that disappears [13]: about 93% |
| CCC1C(=O)N2C(C(=O)O)=C(Sc3ccncc3)CC12 (stereo not shown) [Table I-1 R1=H] | < 0.007 | < 0.007 | 29.5 (≈ 102 µM) | < 0.007 | 7.4 (≈ 25.5 µM) | 29.5 (≈ 102 µM) | 0.46 (≈ 1.58 µM) | 0.92 (≈ 3.17 µM) | 14.8 (≈ 51 µM) | 14.8 (≈ 51 µM) | 1.8 (≈ 6.2 µM) | 1.8 (≈ 6.2 µM) | 29.5 (≈ 102 µM) | 29.5 (≈ 102 µM) | 0.92 (≈ 3.17 µM) | 0.92 (≈ 3.17 µM) | 0.92 (≈ 3.17 µM) | < 0.007 | 29.5 (≈ 102 µM) | 29.5 (≈ 102 µM) | MIC [8]: < 0.007 µg/mL; MIC [9]: < 0.007 µg/mL; MIC [10]: < 0.007 µg/mL; MIC [11]: < 0.007 µg/mL |
| CC(O)[C@H]1C(=O)N2C(C(=O)O)=C(Sc3ccncc3)C[C@H]12 (relative stereo) [Table I-1 R1=-OH*] | – | – | – | 0.013 (≈ 0.0424 µM) | – | – | – | – | – | 25 (≈ 81.6 µM) | – | – | 50 (≈ 163 µM) | 50 (≈ 163 µM) | – | 1.56 (≈ 5.09 µM) | 1.56 (≈ 5.09 µM) | – | 100 (≈ 326 µM) | – | Antibiotic Activity minimum inhibitory concentration (Alcaligenes faecalis A 1): <0.007 µg/mL; Antibiotic Activity minimum inhibitory concentration [1]: <0.007 µg/mL; Antibiotic Activity minimum inhibitory concentration [3]: <0.007 µg/mL; Antibiotic Activity minimum inhibitory concentration [4]: 1.56 µg/mL; Antibiotic Activity minimum inhibitory concentration (Enterobacter sp. E8): 0.025 µg/mL; Antibiotic Activity minimum inhibitory concentration (Escherichia coli K-12): 0.05 µg/mL; Antibiotic Activity minimum inhibitory concentration (Proteus rettgeri P7): 0.78 µg/mL; Antibiotic Activity minimum inhibitory concentration (Providencia sp. P8): 0.20 µg/mL; Antibiotic Activity minimum inhibitory concentration (Sarcina lutea): <0.007 µg/mL; Antibiotic Activity minimum inhibitory concentration (Serratia marcescens S18): 50 µg/mL; Antibiotic Activity minimum inhibitory concentration (Serratia marcescens T55): 25 µg/mL; Antibiotic Activity minimum inhibitory concentration [8]: <0.007 µg/mL; Antibiotic Activity minimum inhibitory concentration [9]: <0.007 µg/mL; Antibiotic Activity minimum inhibitory concentration [10]: <0.007 µg/mL; Antibiotic Activity minimum inhibitory concentration [11]: <0.007 µg/mL |
